Experimental data taken from patent US12492204B2, “Substituted (7H-pyrrolo[2,3-D]pyrimidin-4-yl) amino compounds useful as JAK 1 inhibitors” (CHEMWERTH, INC., priority 2019, dated 2025).

Tests used:
JAK1 = JAK1 (Homo sapiens (Human), UniProt P23458); test: JAK1 enzymatic assay; assay type: biochemical; settings: for IC50: ATP 66 μM, Peptide D; for selectivity for JAK1 over JAK2 / selectivity for JAK1 over JAK3: from enzymatic IC50 values; for selectivity for JAK1 over JAK2: JAK1 vs JAK2; for selectivity for JAK1 over JAK3: JAK1 vs JAK3
JAK1, sequence (P23458 whole entry): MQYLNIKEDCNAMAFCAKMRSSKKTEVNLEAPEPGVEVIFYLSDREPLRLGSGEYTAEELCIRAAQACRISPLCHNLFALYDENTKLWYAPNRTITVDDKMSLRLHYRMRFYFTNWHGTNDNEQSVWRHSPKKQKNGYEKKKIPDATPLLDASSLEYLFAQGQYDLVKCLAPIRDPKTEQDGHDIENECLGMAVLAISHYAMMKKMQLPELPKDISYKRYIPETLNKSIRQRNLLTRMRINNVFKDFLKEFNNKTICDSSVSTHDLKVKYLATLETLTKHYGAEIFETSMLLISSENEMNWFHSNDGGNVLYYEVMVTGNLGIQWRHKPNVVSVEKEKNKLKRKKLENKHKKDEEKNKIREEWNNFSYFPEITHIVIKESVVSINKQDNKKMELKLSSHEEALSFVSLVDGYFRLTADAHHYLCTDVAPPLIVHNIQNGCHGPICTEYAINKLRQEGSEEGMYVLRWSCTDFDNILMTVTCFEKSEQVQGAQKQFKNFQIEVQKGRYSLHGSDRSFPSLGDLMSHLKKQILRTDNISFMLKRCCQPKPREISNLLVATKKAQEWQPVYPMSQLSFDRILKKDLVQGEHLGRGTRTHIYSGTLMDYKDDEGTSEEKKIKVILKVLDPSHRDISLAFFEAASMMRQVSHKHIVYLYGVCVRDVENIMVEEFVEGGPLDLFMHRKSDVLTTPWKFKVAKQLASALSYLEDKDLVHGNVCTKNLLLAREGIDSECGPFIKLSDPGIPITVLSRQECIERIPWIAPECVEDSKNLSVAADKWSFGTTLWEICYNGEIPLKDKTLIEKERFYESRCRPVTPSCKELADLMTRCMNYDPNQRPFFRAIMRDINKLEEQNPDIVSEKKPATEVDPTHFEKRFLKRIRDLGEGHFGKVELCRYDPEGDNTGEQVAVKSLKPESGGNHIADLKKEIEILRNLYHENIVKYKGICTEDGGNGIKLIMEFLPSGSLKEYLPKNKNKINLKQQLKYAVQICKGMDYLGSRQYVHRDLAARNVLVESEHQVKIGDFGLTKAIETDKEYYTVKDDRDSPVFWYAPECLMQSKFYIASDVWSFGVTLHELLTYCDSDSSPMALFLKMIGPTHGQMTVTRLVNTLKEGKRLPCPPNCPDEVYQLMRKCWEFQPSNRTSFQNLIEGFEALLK
Procedure: (§1) A. JAK1, JAK2, and JAK3 Enzymatic Assays
(§2) The JAK enzymatic assay used the following reagents.
(§3) Preparation of assay plate. Each sample or reference compound was diluted to 50× the desired highest inhibitor concentration with DMSO. Each sample or reference compound was serially diluted using a 96-well source plate so that there were 10 concentrations for testing. 10 μL from each well of the source plate was transferred to a 96-well intermediate plate. […] 5 μL from each well of the 96-well intermediate plate was transferred to a 384-well plate.
(§4) Kinase reaction. […] The term “max” refers to the DMSO control and “min” stands for low control. Curve-fitting of the data was performed using Xlfit excel add-in version 5.4.0.8 to obtain IC50 values. Equation used was Y=Bottom+(Top−Bottom)/(1+(Log IC50/X)^HillSlope. The peptide substrates used for each kinase, peptide concentration, enzyme concentration, and ATP concentrations are presented in TABLE 2.

JAK3 = JAK3 (Homo sapiens (Human), UniProt P52333); test: JAK3 enzymatic assay; assay type: biochemical; settings: ATP 6.2 μM, Peptide22
JAK3, sequence (P52333 whole entry): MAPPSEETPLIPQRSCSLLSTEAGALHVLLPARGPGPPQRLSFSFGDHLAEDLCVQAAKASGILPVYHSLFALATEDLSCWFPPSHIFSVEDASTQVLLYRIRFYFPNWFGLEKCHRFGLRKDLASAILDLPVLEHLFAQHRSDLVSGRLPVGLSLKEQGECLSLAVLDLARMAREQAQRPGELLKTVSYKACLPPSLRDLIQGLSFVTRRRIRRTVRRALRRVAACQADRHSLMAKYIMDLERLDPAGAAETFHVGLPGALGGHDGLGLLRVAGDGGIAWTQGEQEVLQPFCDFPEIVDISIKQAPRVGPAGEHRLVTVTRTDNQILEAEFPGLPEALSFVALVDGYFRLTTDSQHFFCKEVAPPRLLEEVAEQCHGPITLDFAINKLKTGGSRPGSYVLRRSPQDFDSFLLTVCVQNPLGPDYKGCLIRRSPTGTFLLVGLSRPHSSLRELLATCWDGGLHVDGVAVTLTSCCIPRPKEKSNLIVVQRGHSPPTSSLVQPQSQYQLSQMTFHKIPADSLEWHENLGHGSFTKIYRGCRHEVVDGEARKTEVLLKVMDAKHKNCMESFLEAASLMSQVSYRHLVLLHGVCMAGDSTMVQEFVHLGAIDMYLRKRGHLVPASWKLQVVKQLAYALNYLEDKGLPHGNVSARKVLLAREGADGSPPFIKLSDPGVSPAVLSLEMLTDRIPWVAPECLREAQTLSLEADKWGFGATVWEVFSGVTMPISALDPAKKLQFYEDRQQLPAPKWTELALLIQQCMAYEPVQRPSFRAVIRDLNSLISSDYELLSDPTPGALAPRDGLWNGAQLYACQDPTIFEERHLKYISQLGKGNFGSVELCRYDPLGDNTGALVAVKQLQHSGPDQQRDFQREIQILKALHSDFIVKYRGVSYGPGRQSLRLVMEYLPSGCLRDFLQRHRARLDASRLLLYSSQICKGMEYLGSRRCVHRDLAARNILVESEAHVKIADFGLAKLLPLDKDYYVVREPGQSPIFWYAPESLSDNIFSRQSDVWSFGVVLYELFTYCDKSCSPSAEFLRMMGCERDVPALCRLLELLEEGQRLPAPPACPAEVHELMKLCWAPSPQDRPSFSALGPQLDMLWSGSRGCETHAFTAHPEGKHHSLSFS
Procedure: as §1, §2
JAK3 (Carna Bio, USA, Inc. Natick, MA, Cat.No. 08-046)
as §3, §4

TYK2 = TYK2 (Homo sapiens (Human), UniProt P29597); test: TYK2 enzymatic assay; assay type: biochemical; settings: ATP 16 μM, Peptide30
TYK2, sequence (P29597 whole entry): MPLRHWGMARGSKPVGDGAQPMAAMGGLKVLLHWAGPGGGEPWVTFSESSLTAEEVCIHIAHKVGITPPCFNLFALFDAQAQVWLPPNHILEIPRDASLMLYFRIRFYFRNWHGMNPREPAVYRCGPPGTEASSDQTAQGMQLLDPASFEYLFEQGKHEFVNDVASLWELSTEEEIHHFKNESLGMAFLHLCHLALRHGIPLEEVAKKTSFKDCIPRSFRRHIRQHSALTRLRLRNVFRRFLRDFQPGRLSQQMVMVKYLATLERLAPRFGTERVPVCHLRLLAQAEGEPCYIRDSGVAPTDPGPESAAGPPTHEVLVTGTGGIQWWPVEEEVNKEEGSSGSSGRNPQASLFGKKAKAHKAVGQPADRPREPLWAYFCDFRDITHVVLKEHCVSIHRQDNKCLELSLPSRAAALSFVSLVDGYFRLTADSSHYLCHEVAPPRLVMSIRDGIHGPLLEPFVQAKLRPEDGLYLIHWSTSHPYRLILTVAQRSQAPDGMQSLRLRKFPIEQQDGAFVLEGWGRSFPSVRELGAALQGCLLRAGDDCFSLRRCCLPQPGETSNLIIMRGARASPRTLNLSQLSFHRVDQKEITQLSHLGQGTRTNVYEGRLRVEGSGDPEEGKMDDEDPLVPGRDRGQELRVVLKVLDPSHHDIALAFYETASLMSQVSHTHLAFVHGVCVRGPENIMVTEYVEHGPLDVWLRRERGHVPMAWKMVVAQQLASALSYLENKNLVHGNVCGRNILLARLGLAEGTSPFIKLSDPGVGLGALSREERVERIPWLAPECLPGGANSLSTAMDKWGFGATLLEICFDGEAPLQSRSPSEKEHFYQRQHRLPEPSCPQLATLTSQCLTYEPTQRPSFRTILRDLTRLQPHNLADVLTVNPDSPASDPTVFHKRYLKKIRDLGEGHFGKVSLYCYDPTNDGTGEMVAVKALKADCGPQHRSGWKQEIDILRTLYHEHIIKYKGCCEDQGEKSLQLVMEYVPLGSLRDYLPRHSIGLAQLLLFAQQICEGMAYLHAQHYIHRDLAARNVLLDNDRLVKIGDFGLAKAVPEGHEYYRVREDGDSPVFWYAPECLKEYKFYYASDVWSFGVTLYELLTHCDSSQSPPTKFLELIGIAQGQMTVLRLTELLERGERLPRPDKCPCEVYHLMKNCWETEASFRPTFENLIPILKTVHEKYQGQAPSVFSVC

JAK2 = JAK2 (Homo sapiens (Human), UniProt O60674); test: JAK2 enzymatic assay; assay type: biochemical; settings: ATP 6.5 μM, Peptide22
JAK2, sequence (O60674 whole entry): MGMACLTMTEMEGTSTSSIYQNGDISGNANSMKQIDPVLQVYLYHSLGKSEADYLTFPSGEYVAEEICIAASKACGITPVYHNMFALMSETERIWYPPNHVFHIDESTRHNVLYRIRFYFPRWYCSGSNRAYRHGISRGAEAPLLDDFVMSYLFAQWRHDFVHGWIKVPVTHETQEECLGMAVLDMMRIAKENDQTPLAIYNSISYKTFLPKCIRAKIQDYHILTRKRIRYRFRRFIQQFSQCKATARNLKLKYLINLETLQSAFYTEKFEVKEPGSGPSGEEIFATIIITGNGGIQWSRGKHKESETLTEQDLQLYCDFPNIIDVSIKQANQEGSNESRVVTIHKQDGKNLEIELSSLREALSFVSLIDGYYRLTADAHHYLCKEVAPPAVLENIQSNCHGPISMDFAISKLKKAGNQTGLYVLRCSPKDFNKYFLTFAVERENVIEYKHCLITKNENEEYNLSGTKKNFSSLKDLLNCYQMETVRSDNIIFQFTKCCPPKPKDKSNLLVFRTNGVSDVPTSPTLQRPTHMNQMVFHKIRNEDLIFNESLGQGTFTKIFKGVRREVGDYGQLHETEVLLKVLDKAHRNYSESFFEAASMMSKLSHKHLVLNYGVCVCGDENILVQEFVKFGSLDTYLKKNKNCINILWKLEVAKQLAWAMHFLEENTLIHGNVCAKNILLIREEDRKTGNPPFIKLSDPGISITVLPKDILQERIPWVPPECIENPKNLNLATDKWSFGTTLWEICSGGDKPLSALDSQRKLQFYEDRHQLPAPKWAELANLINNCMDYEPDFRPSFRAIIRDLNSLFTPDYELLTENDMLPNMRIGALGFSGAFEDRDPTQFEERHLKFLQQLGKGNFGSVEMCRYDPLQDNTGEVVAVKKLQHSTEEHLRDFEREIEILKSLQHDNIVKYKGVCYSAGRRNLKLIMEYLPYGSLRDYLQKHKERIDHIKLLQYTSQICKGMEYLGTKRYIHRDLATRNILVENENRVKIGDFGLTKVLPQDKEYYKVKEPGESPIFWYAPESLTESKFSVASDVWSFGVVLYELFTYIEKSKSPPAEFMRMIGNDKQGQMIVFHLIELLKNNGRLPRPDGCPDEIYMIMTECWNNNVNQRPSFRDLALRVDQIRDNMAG
Procedure: as §1, §2
JAK2 (Carna Bio, USA, Inc. Natick, MA, Cat.No. 08-045)
as §3, §4

[1] = Metabolic stability assay (liver microsomes); assay type: in vitro ADME; settings: dog liver microsomes; for Percent Remaining (%) 0 min / Percent Remaining (%) 5 min / Percent Remaining (%) 15 min / Percent Remaining (%) 30 min / Percent Remaining (%) 45 min: mean; for half-lives as compared with the reference compounds: vs Oclacitinib and ketanserin; for CLint scaled at 1 µM / half-life at 1 µM: pooled liver microsomes, pH 7.4
Procedure: Stock solutions of the sample and reference compounds were prepared in DMSO (10 mM). A spiking solution (500 μM) was prepared for each sample compound and reference compound by diluting 10 μL of the stock solution in ACN (190 μL). A microsomal spiking solution having a microsome concentration of 0.75 mg/mL was prepared for each sample: 1.5 μL of the respective 500 μM spiking solution was mixed with 18.75 μL microsomal solution (pooled liver microsomes, 20 mg/mL in 250 mM sucrose, Corning, Cat. No. 452601, Lot. No. 8176003) and 479.75 μL buffer (0.1 M potassium phosphate buffer, 1.0 mM EDTA, pH 7.4). The microsomal spiking solutions were cooled on ice. Assay plates with wells designated for different time points (0, 5, 15, 30 and 45 minutes) were cooled on ice. 30 μL of each microsomal spiking solution was added to the wells designated for different time points (0, 5, 15, 30 and 45 minutes). 135 μL of ACN containing IS was added to the wells of the plate labelled 0 minutes followed by 15 μL of the NaDPH stock solution (6 mM NaDPH in 0.1 M Potassium Phosphate buffer, 1.0 mM EDTA, pH 7.4). The plates for 5, 15, 30 and 45 minutes were incubated at 37° C. for 5 minutes. At 5 min, […], 30 min, and 45 min, 135 μL of ACN containing IS was added to the wells of the corresponding plates to quench the reaction. The plates were shaken [IKA vibrator, MTS 2/4] for 10 minutes and centrifuged at 5594 G for 15 minutes (Thermo Multifuge×3R). 50 μL of the supernatant from each well was transferred to a 96-well sample plate containing 50 μL of ultrapure water (Millipore, ZMQS50F01) for LC-MS analysis.

Row | Structure (SMILES) | IC50 (JAK1) [µM] | selectivity for JAK1 over JAK2 (JAK1) | selectivity for JAK1 over JAK3 (JAK1) [fold] | IC50 (JAK3) [µM] | IC50 (TYK2) [µM] | IC50 (JAK2) [µM] | Percent Remaining (%) 0 min [1] [%] | Percent Remaining (%) 5 min [1] [%] | Percent Remaining (%) 15 min [1] [%] | Percent Remaining (%) 30 min [1] [%] | Percent Remaining (%) 45 min [1] [%] | half-lives as compared with the reference compounds [1] | CLint scaled at 1 µM [1] [L/h/kg] | half-life at 1 µM [1] [h]
1 | CNC(=O)N[C@H]1CC[C@H](N(C)c2ncnc3[nH]ccc23)CC1 [Compound 1, 1-methyl-3-((1r,4r)-4-(methyl(7H-pyrrolo[2,3-d]pyrimidin-4-yl)amino)cyclohexyl)urea] | 0.156 | 87% | 3.96 | 0.618 | 3.82 | 0.292 | – | – | – | – | – | – | – | –
2 | CCNC(=O)N[C@H]1CC[C@H](N(C)c2ncnc3[nH]ccc23)CC1 [Compound 2, 1-ethyl-3-((1r,4r)-4-(methyl(7H-pyrrolo[2,3-d]pyrimidin-4-yl)amino)cyclohexyl)urea] | 0.043 | 2.9 fold | 10.4 | 0.447 | 1.79 | 0.126 | – | – | – | – | – | – | – | –
3 | CCCNC(=O)N[C@H]1CC[C@@H](N(C)c2ncnc3[nH]ccc23)CC1 [Compound 3, 1-propyl-3-((1r,4r)-4-(methyl(7H-pyrrolo[2,3-d]pyrimidin-4-yl)amino)cyclohexyl)urea] | 0.019 | 3.7 fold | 10.9 | 0.207 | 1.51 | 0.07 | 100.00 | 94.76 | 86.94 | 75.53 | 73.67 | dramatically improved half-lives | 2.12 | 1.63
4 | CC(C)NC(=O)N[C@H]1CC[C@H](N(C)c2ncnc3[nH]ccc23)CC1 [Compound 4, 1-isopropyl-3-((1r,4r)-4-(methyl(7H-pyrrolo[2,3-d]pyrimidin-4-yl)amino)cyclohexyl)urea] | 0.04 | 3.35 fold | 15.4 | 0.615 | 2.71 | 0.134 | – | – | – | – | – | – | – | –
5 | CN(c1ncnc2[nH]ccc12)[C@H]1CC[C@H](NC(=O)NCC#N)CC1 [Compound 5, 1-(cyanomethyl)-3-((1r,4r)-4-(methyl(7H-pyrrolo[2,3-d]pyrimidin-4-yl)amino)cyclohexyl)urea] | 0.0075 | 2.4 fold | 3.5 | 0.026 | 0.415 | 0.018 | 100.00 | 100.66 | 95.39 | 87.57 | 86.91 | dramatically improved half-lives | 1.09 | 3.16
6 | CN(c1ncnc2[nH]ccc12)[C@H]1CC[C@H](NC(=O)NCC(F)(F)F)CC1 [Compound 6, 1-((1r,4r)-4-(methyl(7H-pyrrolo[2,3-d]pyrimidin-4-yl)amino)cyclohexyl)-3-(2,2,2-trifluoroethyl)urea] | 0.0023 | 6 fold | 18.3 | 0.042 | 0.335 | 0.014 | 100.00 | 93.91 | 85.39 | 76.25 | 71.95 | dramatically improved half-lives | 2.19 | 1.58
7 | CNS(=O)(=O)C[C@H]1CC[C@H](N(C)c2ncnc3[nH]ccc23)CC1 [Oclacitinib, reference compound] | 0.0066 | 45% | 10.6 | 0.07 | 0.077 | 0.0093 | 100.00 | 94.12 | 82.56 | 68.65 | 62.97 | – | 3.18 | 1.09
8 | O=C(c1ccc(F)cc1)C1CCN(CCn2c(=O)[nH]c3ccccc3c2=O)CC1 [ketanserin, reference compound] | – | – | – | – | – | – | 100.00 | 82.91 | 62.01 | 42.37 | 36.16 | – | 6.85 | 0.505
